The values below come from patent publication US8012944B2, “Method for treating cancer using IAP antisense oligomer and chemotherapeutic agent” (Pharmascience Inc., priority 2003, dated 2011).

Common to all, as to assay type: cell-based, human
For one data set, the system named is XIAP protein. In words: XIAP protein knock-down in T24 cells (XIAP ELISA, relative to total protein). As to conditions: for XIAP protein levels relative to total protein, compared to mock transfection (in words): first screen of the library. From the text: (§1) We used TaqMan quantitative PCR (described below) to assay for changes in mRNA levels after oligonucleotide treatment. We employed ELISA for determining XIAP protein levels and western blotting for determining HIAP1 protein levels. Transfection conditions were optimized with Lipofectamine plus or Lipofectamine 2000 (Life Technologies, Canada) on T24 bladder carcinoma cells or H460 non-small cell lung carcinoma cells, or lipofectin on SF-295 glioblastoma cells, using a fluorescein-tagged sense oligonucleotide (5′-mGmAGAAGATGACTGGTAAmCmA-3′; SEQ ID NO: 261) from XIAP spanning the start codon as a control. The results were visualized and gauged by epi-fluorescence microscopy. In the case of T24 cells, transfections were further optimized based on the ability of a published oligonucleotide to downregulate survivin expression (Li et al., Nat. Cell Biol. 1:461-466, 1999) (5′-U/TGTGCTATTCTGTGAAU/TU/T-3′ SEQ ID NO: 262). We optimized the transfection conditions based on the TaqMan results of survivin RNA knock-down detected with PCR primers and fluorescent probe, described in detail below. […] We then applied these conditions to screen for XIAP protein knock-down using the oligo library against T24 cells.
A standard colorimetric XIAP ELISA assay was performed using an affinity-purified rabbit polyclonal antibody to XIAP as a capture antibody, and was detected with a XIAP monoclonal antibody (MBL, Japan) and a biotinylated anti-mouse Ig antibody and horseradish peroxidase-conjugated streptavidin and TMB substrate. Alternatively, a polyclonal XIAP or HIAP1 antibody may be used to measure XIAP or HIAP1 protein levels, respectively.
The XIAP synthetic library of 96 antisense oligonucleotides was first screened for decreases in XIAP protein levels. Specifically, T24 cells (1.5×10^4 cells/well) were seeded in wells of a 96-well plate on day 1, and were cultured in antibiotic-free McCoy's medium for 24 hours. On day 2, the cells were transfected with XIAP antisense oligonucleotides as described above (oligonucleotides are labeled according to their plated position, i.e., A1 to H12, and include two repeats, A13 and B13 that contain lyophilized DNA pellets that stuck to the sealing membrane). Briefly, the nucleobase oligomers were diluted in 10 μl/well of serum-free, antibiotic-free McCoy's medium and then PLUS reagent was added. Lipofectamine was diluted in 10 μl/well of serum-free, antibiotic-free McCoy's medium, and both mixes were incubated for 15 minutes at room temperature. The mixes were then combined and incubated for 15 minutes at room temperature.
In the meantime, the complete medium was removed from the cells and 50 μl/well of serum-free, antibiotic-free medium was added to the cells. The transfection mixes were added to the well, and the cells were incubated for three hours. Then 30 μl/well of serum-free, antibiotic-free medium and 100 μl/well of antibiotic-free complete medium, containing 20% fetal bovine serum were added to each well.
At day 3, XIAP RNA levels were measured using quantitative real-time PCR techniques, as described above. At day 4, XIAP protein levels were measured by ELISA (FIGS. 1A, 1C, 1E, 1G, 1I, and 1K), and total cellular protein was measured biochemically (FIGS. 1B, 1D, 1F, 1H, 1J, and 1L; used to normalize the XIAP protein levels). The results were compared to a mock transfection sample (treated with the transfection agent but no oligonucleotide DNA was added, and then processed as for the other samples). Time course experiments determined that the optimal time for protein knock-down to be around 12 to 24 hours. […]
A general note: An ELISA detects its analyte on a solid surface through an enzyme-linked reagent.

The test system of data set [1] is T24 bladder carcinoma cells. In words: Total cellular protein in transfected T24 cells. As to conditions: first screen. How it is done: At day 3, XIAP RNA levels were measured using quantitative real-time PCR techniques, as described above. At day 4, XIAP protein levels were measured by ELISA (FIGS. 1A, 1C, 1E, 1G, 1I, and 1K), and total cellular protein was measured biochemically (FIGS. 1B, 1D, 1F, 1H, 1J, and 1L; used to normalize the XIAP protein levels). The results were compared to a mock transfection sample (treated with the transfection agent but no oligonucleotide DNA was added, and then processed as for the other samples). Time course experiments determined that the optimal time for protein knock-down to be around 12 to 24 hours.
These nucleobase oligomers were also examined for their ability to decrease XIAP mRNA levels at 12 hours, normalized against GAPDH levels, and compared to mock transfection. Total protein concentrations at 12 hours were also determined (FIG. 2C).

Data set [2] has as its system XIAP mRNA. In words: XIAP mRNA knock-down in H460 cells (real-time RT-PCR / TaqMan). The method in brief:
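NCI-H460 cells transfected with phosphorothioate antisense oligonucleotides via Lipofectamine 2000; RNA isolated after 6 h treatment. XIAP mRNA quantified by one-step TaqMan real-time RT-PCR, comparative Ct (threshold 30× baseline SD), normalized to GAPDH and expressed relative to untreated control cells.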

Data set [3] has as its system XIAP mRNA. Described as above. As to conditions: 2 × 2 MBO; NCI-H460 cells, 9 hours post-transfection; relative level (mock control 1.01).
The test system of a further data set is XIAP RNA. The data set is described as follows: XIAP RNA knock-down in T24 cells (TaqMan quantitative PCR).
Description: as §1
RNA was extracted from cells lysed in RLT buffer (QIAGEN, Valencia, Calif.), and purified using QIAGEN RNeasy columns/kits. Real-time quantitative PCR was performed on a Perkin-Elmer ABI 7700 Prism PCR machine. RNA was reverse transcribed and amplified according to the TaqMan Universal PCR Master Mix protocol of PE Biosystems, using primers and probes designed to specifically recognize XIAP, HIAP1, survivin, or GAPDH. For human survivin, the forward primer was 5′-[…]-3′ (SEQ ID NO: 263), the reverse primer was 5′-GAAAGGAAAGCGCAACCG-3′ (SEQ ID NO: 264), and the probe was 5′-(FAM)[…](TAMRA)-3′ (SEQ ID NO: 265). For human HIAP1, the forward primer was 5′-[…]-3′ (SEQ ID NO: 266), the reverse primer was 5′-[…]-3′ (SEQ ID NO: 267), and the probe was 5′-(FAM)[…](TAMRA)-3′ (SEQ ID NO: 268). For human XIAP, the forward primer was 5′-[…]-3′ (SEQ ID NO: 269), the reverse primer was 5′-[…]-3′ (SEQ ID NO: 270), and the probe was 5′-(FAM)[…](TAMRA)-3′ (SEQ ID NO: 271). For human GAPDH, the forward primer was 5′-GAAGGTGAAGGTCGGAGTC-3′ (SEQ ID NO: 272), the reverse primer was 5′-GAAGATGGTGATGGGATTC-3′ (SEQ ID NO: 273), and the probe was 5′-(JOE)[…](TAMRA)-3′ (SEQ ID NO: 274). FAM is 6-carboxyfluoroscein, JOE is 6-carboxy-4,5-dichloro-2,7-dimethoxyfluoroscein, and TAMRA is 6-carboxy-N,N,N′,N′-tetramethylrhodamine. FAM and JOE are 5′ reporter dyes, while TAMRA is a 3′ quencher dye.
Relative quantification of gene expression was performed as described in the PE Biosystems manual using GAPDH as an internal standard. The comparative Ct (cycle threshold) method was used for relative quantitation of IAP mRNA levels compared to GAPDH mRNA levels. Briefly, real-time fluorescence measurements were taken at each PCR cycle and the threshold cycle (Ct) value for each sample was calculated by determining the point at which fluorescence exceeded a threshold limit of 30 times the baseline standard deviation. The average baseline value and the baseline SD are calculated starting from the third cycle baseline value and stopping at the baseline value three cycles before the signal starts to exponentially rise. The PCR primers and/or probes for the specific IAPs were designed to span at least one exon-intron boundary separated by 1 kb or more of genomic DNA, to reduce the possibility of amplifying and detecting genomic DNA contamination. The specificity of the signal, and possible contamination from DNA, were verified by treating some RNA samples with either DNase or RNase, prior to performing the reverse transcription and PCR reaction steps.
The XIAP synthetic library of 96 antisense oligonucleotides was first screened for decreases in XIAP protein levels. […]
(Real-time PCR tracks product formation cycle by cycle.)

Data set [4] relates to T24 bladder carcinoma cells. The data set is described as follows: T24 cell viability and chemosensitization (WST-1 tetrazolium dye assay). Conditions: adriamycin 0.5 μg/ml for 20 hours after transfection, vs oligonucleotide alone. As to the method: T24 cells were transfected with XIAP antisense oligonucleotides, scrambled oligonucleotides, no oligonucleotides (mock transfected), or were left untreated. The cells were tested for viability 20 hours after transfection (with the exception of the untreated control) using the WST-1 tetrazolium dye assay in which WST-1 tetrazolium dye is reduced to a colored formazan product in metabolically active cells (FIG. 5A).
To examine the effects of the nucleobase oligomers on the chemosensitization of the T24 cells to cisplatin or adriamycin, oligonucleotides were tested for their ability to further kill T24 cells in the presence of a fixed dose of adriamycin (0.5 μg/ml). Cells were first transfected with a oligonucleotide, then adriamycin was added for another 20 hours. Viability was measured by WST-1 at the end of the 20-hour drug treatment (FIG. 5B). Results are shown in FIG. 5C as percentage viability compared to nucleobase oligomer treatment alone.
In general terms: Tetrazolium assays rely on reduction of a dye to a coloured formazan, in cell work by metabolically active cells.

d = 2'-deoxy (DNA); m = 2'-O-methyl

“AGTTAAATGAATATTGTTT (antisense; sugars from the 5' end m2 d15 m2, backbone and T or U not given here; further chemistry not fully specified) [Code B9]”: the “XIAP protein levels relative to total protein, compared to mock transfection (in words)” value in the data set on XIAP protein is listed as “no relative drop”. Also, in data set [1], the “total protein (toxic or cytostatic effect)” value is reported as “clear drop”. The “XIAP down-regulation H460 RNA” value in the data set with XIAP mRNA [2] is listed as 38%. Also, the “XIAP RNA” value in the data set on XIAP mRNA [3] stood at 0.74.
Consider “ATCTTCTCTTGAAAATAGG (sugars from the 5' end m2 d15 m2, linkages s1 o16 s1 (s phosphorothioate, o phosphodiester), T or U not given here) [Code F3]”, for which, in the data set on XIAP RNA, the “XIAP down-regulation T24 RNA” value came out at 44%. Moreover, in the data set on XIAP protein, the “XIAP down-regulation T24 protein” value turned out to be 53% and the “XIAP protein levels relative to total protein, compared to mock transfection (in words)” value is given as “some decrease”. Further, the “further drop in survival with adriamycin” value in data set [4] is 40%.
Take “GACACTCCTCAAGTGAATG (antisense; sugars from the 5' end m2 d15 m2, backbone, methylation of C and T or U not given here; further chemistry not fully specified) [Code C9]”: the “XIAP protein levels relative to total protein, compared to mock transfection (in words)” value with XIAP protein is recorded as “no relative drop”. Besides, the “total protein (toxic or cytostatic effect)” value in data set [1] is reported as “clear drop”.
As for “GATTCACTTCGAATATTAA (sugars from the 5' end m2 d15 m2, linkages s1 o16 s1 (s phosphorothioate, o phosphodiester), methylation of C not given here) [Code D7]”, in the data set with XIAP RNA, the “XIAP down-regulation T24 RNA” value is 56%. In the data set on XIAP protein, the “XIAP down-regulation T24 protein” value worked out at 88% and the “XIAP protein levels relative to total protein, compared to mock transfection (in words)” value is “some decrease”. For the same sequence, the “XIAP down-regulation H460 RNA” value in the data set on XIAP mRNA [2] was determined as 46%. For the same sequence, the “further drop in survival with adriamycin” value in data set [4] came out at 40%.
